Where a name gives a salt, the structure may show the parent alone.
Columns and labels:
myocyte cAMP = assay: Whole cell cAMP in isolated rabbit myocytes; assay type: cell-based
From the text: This is consistent with prior studies showing locally generated cAMP from β-AR and its modulation by PDE3 occur in local subcellular domains that are not easily detected in whole cell lysates32.

adult rabbit myocytes = assay: Contraction and calcium transients in isolated rabbit cardiomyocytes; assay type: cell-based; conditions: for decay kinetics / relaxation times / peak-Ca2+ transient / percent sarcomere shortening: agent alone: Cil 1 μM, Compound 1 1 μM, Iso non-saturating dose
Procedure: To test whether PDE1 inhibition directly impacts cardiomyocyte contraction and calcium transients, studies are carried out on normal adult rabbit myocytes. […] As PDE1 requires sufficient cAMP and Ca^2+ to be impactful, a dose response was performed to the adenylate cyclase activator, forskolin (FSK) to determine the lowest dose producing a modest but significant inotropic effect (1 μM).
Rabbit myocytes were isolated to determine the effect of PDE1 inhibition on cardiomyocyte contraction and whole cell Ca2+ transients, and to compare the results to those with a PDE3 inhibitor, cilostamide (Cil, 1 μM).
An alternative approach to augmenting cAMP independent of […] is to directly stimulate adenylate cyclase using forskolin (Fsk). A dose response study was carried out to identify a non-saturating Fsk dose that still generated significant inotropic effects (1 μM).

[1] = system: normal and failing canine hearts; assay: Conscious dog pressure-volume hemodynamic analysis, normal and failing hearts; assay type: in vivo; conditions: dobutamine 10 μg/kg/min alone
From the text: Dogs are studied in the conscious state before and after inducing dilated cardiomyopathy by tachypacing for two weeks at 200 bpm. […]
Load insensitive indexes of contractility (dP/dtmax/IP and PRSW) increased.

plasma cAMP and cGMP = assay: Plasma cAMP and cGMP by ELISA in dogs; assay type: in vivo, dog
Procedure: Blood plasma is obtained from these animals, and cAMP and cGMP are assayed by ELISA.

[2] = system: rabbit heart and vasculature; assay: Anesthetized rabbit pressure-volume hemodynamics with or without esmolol or MRS-1754; assay type: in vivo; conditions: for effect of blocker on Compound 1 responses: atrially paced, fixed heart rate; for impact of inhibitor pre-treatment alone on cardiovascular hemodynamics: rabbit, in vivo
From the text: Cyclic AMP is generated largely by transmembrane adenylyl cyclases activated via stimulatory G protein (Gs), with β-adrenergic, adenosine (primarily A2B), glucagon, prostanoids, histamine, and serotonin all coupling to Gs in cardiomyocytes. The present studies focus on beta-adrenergic and adenosine receptors, and for the latter, concentrated on the A2B receptor, which has been reported to directly stimulate cAMP-dependent contractility. […] Relaxation changes are also modest with LV preload (end-diastolic and volume) unaltered; however, the combined vasodilator-inotropic response doubled ventricular/arterial coupling ratio, Ees/Ea.
New Zealand White rabbits (male, 2-3 kg) are sedated with 35 mg/kg ketamine and 5 mg/kg xylazine, intubated and ventilated (Model 683, Harvard Apparatus, Holliston, Mass.), with anesthesia maintained with isoflurane inhalation (1-2%). A pressure-volume catheter (SPR-894, Millar, Inc., Houston, Tex.) is inserted via the common carotid artery and advanced to the LV apex, and a 2-Fr pacing catheter is positioned in the right atrium via the right jugular vein to provide atrial pacing. […] The parallel conductance is determined by the hypertonic saline injection method. Rabbits are infused with 6% hetastarch in saline during the procedure to stabilize arterial pressure.

[3] = agent added to non-saturating Iso
[4] = agent alone: Iso 50 nM, Compound 1 up to 1 mM, IBMX 100 μM

SMILES: CN(C(=O)CCCOc1ccc2[nH]c(=O)ccc2c1)C1CCCCC1 [Cil, cilostamide]
- whole cell cAMP (myocyte cAMP; agent added to Fsk): unaltered
- whole cell cAMP (myocyte cAMP; agent alone): did not measurably increase whole cell cAMP
- whole cell cAMP (myocyte cAMP; agent combined with Iso): did not measurably increase whole cell cAMP
- Ca2+ transient decay rate (adult rabbit myocytes; agent added to Fsk 1 μM): faster decay of the Ca2+ transient
- peak Ca2+ transient (adult rabbit myocytes; agent added to Fsk 1 μM): increase
- sarcomere shortening (adult rabbit myocytes; agent added to Fsk 1 μM): increase in sarcomere shortening
- peak-Ca2+ (adult rabbit myocytes; [3]): remained elevated over baseline
- sarcomere shortening (adult rabbit myocytes; [3]): further increased sarcomere shortening
- decay kinetics / relaxation times (adult rabbit myocytes): accelerated
- peak-Ca2+ transient (adult rabbit myocytes): rose
- percent sarcomere shortening (adult rabbit myocytes): rose

SMILES: CC(CCc1ccc(O)cc1)NCCc1ccc(O)c(O)c1 (centres unmarked) [Dobutamine, dobutamine, reference compound]
- PV loop area (stroke work) [1]: increased PV loop area
- plasma cAMP (plasma cAMP and cGMP; HF dogs, single drugs): not significantly changed
- plasma cGMP (plasma cAMP and cGMP; all conditions, normal and HF models): remains unchanged
- plasma cAMP (plasma cAMP and cGMP; normal dogs): augmented plasma cAMP

SMILES: CC(C)Cn1c(=O)n(C)c(=O)c2[nH]cnc21 [IBMX]
- contraction/calcium decay time or rates (adult rabbit myocytes; [4]): increased
- peak Ca2+ transient (adult rabbit myocytes; [4]): did not alter peak calcium transients
- sarcomere shortening (adult rabbit myocytes; [4]): increased shortening

SMILES: CCCn1c(=O)c2[nH]c(-c3ccc(OCC(=O)Nc4ccc(C#N)cc4)cc3)nc2n(CCC)c1=O [MRS-1754, reference compound]
- effect of blocker on cardiovascular responses to Compound 1 (heart rate, contractility, vasodilation) ([2]; MRS-1754 1 mg/kg iv before Compound 1 0.1 mg/kg): eliminated all of the cardiovascular responses to Compound 1
- effect of blocker on Compound 1 responses [2]: fully blocked
- impact of inhibitor pre-treatment alone on cardiovascular hemodynamics [2]: Neither inhibitor pre-treatment alone has a significant impact

SMILES: COC(=O)CCc1ccc(OCC(O)CNC(C)C)cc1 (centres unmarked) [esmolol, esmolol HCl, reference compound]
- effect of blocker on Compound 1 responses [2]: unaltered
- block of cardiac responses to 10 μg/kg/min dobutamine ([2]; esmolol 0.5 mg/kg bolus then 0.05 mg/kg/min): effectively blocked
- impact of inhibitor pre-treatment alone on cardiovascular hemodynamics [2]: Neither inhibitor pre-treatment alone has a significant impact

SMILES: C=C[C@@]1(C)CC(=O)[C@]2(O)[C@@]3(C)[C@@H](O)CCC(C)(C)[C@@H]3[C@H](O)[C@H](OC(C)=O)[C@@]2(C)O1 [forskolin]
- lowest (non-saturating) dose producing a modest but significant inotropic effect (adult rabbit myocytes; dose response): 1 µM

SMILES: CC(C)NCC(O)c1ccc(O)c(O)c1 (centres unmarked) [isoproterenol]
- whole cell cAMP (myocyte cAMP; agent alone): did not measurably increase whole cell cAMP
- decay kinetics / relaxation times (adult rabbit myocytes): quickened relaxation times
- peak-Ca2+ transient (adult rabbit myocytes): increased
- percent sarcomere shortening (adult rabbit myocytes): increased
- contraction/calcium decay time or rates (adult rabbit myocytes; [4]): accelerates the decay time of both
- peak Ca2+ transient (adult rabbit myocytes; [4]): increases
- sarcomere shortening (adult rabbit myocytes; [4]): increases

Reference: patent US11839614B2, “Methods for treating or mitigating cardiotoxicity characterized by inhibition of adenosine A2 signaling and/or adenosine A2 receptor expression” (INTRA-CELLULAR THERAPIES, INC., priority 2018, dated 2023)
